ChEMBL document CHEMBL3421602, “Small molecule discoidin domain receptor kinase inhibitors and potential medical applications” (J Med Chem, 2015)
Numbered stars: 1 amine (or outer) side, 2 acyl side, 3 side chain; on linkers, the order of the positions; unused ones are H or OH. Bridge positions count the residues as written; N and C are the ends. Square brackets hold non-standard residues; d marks the D form. Peptide text beside a SMILES is read from it. I, II: the chains in the order shown. Actinocin(9to1) = Cc1c2oc3c(C)ccc(C(=O)[*:1])c3nc-2c(C(=O)[*:2])c(N)c1=O; NMeV = CN[C@H](C(=O)O)C(C)C; Sar = CNCC(=O)O

Legend:
[1] = molecular target: T1, Discoidin domain-containing receptor 2 (Homo sapiens, UniProt Q16832); assay: Inhibition of recombinant non-activated DDR2 tyrosine kinase domain (unknown origin) using histone H2B peptide substrate and [32P]ATP incubated for 15 mins
T1 sequence (Q16832 whole entry): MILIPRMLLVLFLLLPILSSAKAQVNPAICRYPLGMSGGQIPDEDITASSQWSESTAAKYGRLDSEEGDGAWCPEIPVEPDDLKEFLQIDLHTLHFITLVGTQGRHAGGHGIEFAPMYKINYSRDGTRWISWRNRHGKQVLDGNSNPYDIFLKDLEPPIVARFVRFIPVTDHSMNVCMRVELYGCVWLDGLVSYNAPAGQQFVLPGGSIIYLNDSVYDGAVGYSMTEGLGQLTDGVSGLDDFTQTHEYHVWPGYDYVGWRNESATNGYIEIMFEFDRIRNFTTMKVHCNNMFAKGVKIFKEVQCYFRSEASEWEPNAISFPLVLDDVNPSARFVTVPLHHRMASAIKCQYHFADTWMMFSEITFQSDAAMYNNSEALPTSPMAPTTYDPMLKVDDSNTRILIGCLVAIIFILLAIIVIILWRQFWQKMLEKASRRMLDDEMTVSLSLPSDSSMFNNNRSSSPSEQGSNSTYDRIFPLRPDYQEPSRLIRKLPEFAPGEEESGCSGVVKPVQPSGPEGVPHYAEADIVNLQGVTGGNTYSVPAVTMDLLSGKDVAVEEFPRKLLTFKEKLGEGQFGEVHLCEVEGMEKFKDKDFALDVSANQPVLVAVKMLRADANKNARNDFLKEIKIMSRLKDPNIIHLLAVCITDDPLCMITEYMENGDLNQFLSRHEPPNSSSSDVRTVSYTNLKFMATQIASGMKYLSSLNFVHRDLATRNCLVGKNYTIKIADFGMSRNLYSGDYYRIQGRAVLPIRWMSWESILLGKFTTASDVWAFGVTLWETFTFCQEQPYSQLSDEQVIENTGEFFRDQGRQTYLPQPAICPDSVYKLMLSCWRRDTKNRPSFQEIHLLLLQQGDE

[2] = molecular target: T1, Discoidin domain-containing receptor 2; assay: Inhibition of recombinant activated DDR2 tyrosine kinase domain (unknown origin) using histone H2B peptide substrate and [32P]ATP incubated for 15 mins
[3] = molecular target: T1, Discoidin domain-containing receptor 2; assay: Binding affinity to DDR2 (unknown origin) by active-site dependent competition binding assay
[4] = molecular target: T2, Epithelial discoidin domain-containing receptor 1 (Homo sapiens, UniProt Q08345); assay: Inhibition of human DDR1 in doxycycline-stimulated human U2OS cells assessed as inhibition of collagen-1-induced autophosphorylation incubated for 1 hr; assay type: cell-based
T2 sequence (Q08345 whole entry, the tested form may be a part): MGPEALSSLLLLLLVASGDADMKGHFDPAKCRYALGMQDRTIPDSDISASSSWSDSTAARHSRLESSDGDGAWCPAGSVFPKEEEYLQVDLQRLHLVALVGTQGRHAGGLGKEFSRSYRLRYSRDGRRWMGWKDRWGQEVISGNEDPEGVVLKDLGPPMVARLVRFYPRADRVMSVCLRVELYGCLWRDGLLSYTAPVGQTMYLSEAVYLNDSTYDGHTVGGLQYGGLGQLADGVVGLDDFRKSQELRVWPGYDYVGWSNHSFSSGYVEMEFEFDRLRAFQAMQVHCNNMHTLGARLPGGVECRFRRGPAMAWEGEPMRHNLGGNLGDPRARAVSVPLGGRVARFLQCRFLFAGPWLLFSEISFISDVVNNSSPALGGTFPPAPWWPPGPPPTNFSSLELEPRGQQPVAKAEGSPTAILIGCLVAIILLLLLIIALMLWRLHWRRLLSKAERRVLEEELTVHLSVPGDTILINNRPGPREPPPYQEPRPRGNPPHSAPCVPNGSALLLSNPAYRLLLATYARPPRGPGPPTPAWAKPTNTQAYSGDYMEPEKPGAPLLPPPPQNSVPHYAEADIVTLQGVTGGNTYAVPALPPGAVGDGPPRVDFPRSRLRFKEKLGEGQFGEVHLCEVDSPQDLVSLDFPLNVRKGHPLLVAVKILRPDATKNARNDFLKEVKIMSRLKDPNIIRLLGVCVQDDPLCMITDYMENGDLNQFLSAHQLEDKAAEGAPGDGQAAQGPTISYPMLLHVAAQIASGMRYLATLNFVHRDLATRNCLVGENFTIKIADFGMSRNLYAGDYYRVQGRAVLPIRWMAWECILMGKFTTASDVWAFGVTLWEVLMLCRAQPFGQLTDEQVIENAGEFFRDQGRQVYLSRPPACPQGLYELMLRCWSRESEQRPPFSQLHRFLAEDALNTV

[5] = molecular target: T2, Epithelial discoidin domain-containing receptor 1; assay: Inhibition of human DDR1 kinase domain (601 to 913 residues) expressed in Sf9 cells by enzymatic kinase assay
U2OS = assay: Inhibition of cell proliferation of human U2OS cells over-expressing DDR1
[6] = molecular target: T1, Discoidin domain-containing receptor 2; assay: Inhibition of human DDR2 expressed in HEK293 cells assessed as reduction in collagen-2-induced DDR2 phosphorylation; assay type: cell-based
[7] = molecular target: T1, Discoidin domain-containing receptor 2; assay: Inhibition of human DDR2 expressed in HEK293 cells assessed as reduction in collagen-1-induced DDR2 tyrosine phosphorylation pre-incubated for 30 mins by immunoblotting method; assay type: cell-based

## Oc1cccc(Nc2ccnc3cc(-c4cccc(CN5CCOCC5)c4)sc23)c1
[1]
  IC50: 145 nM
[2]
  IC50: 6 nM

## CCc1ccc(C(=O)Nc2cc(CN3CCN(C)CC3)cc(C(F)(F)F)c2)cc1C#Cc1cnc2ccnn2c1
[3]
  Kd: 0.6 nM

## CCN1CCN(Cc2ccc(C(=O)Nc3ccc(C)c(NCc4cnc5[nH]ccc5c4OC)c3)cc2C(F)(F)F)CC1
[4]
  IC50: 9 nM
[5]
  IC50: 47 nM

## CCS(=O)(=O)c1ccc(Cl)cc1CNC(=O)c1ccc(CN2CCN(C)CC2)c(C(F)(F)F)c1
U2OS
  IC50: 440 nM

## CNC(=O)c1cc(Oc2ccc(CNC(=O)Nc3cc(Cl)ccc3OC)cc2C)ccn1
[6]
  IC50: 30 nM

## Cn1cc(C(F)(F)F)cc(NC(=O)NCc2ccc(Oc3ccnc4c3CNC(=O)N4)cc2)c1=O
[6]
  IC50: 15 nM

## Cc1c2oc3c(C)ccc(C(=O)N[C@@H]4C(=O)N[C@H](C(C)C)C(=O)N5CCC[C@H]5C(=O)N(C)CC(=O)N(C)[C@@H](C(C)C)C(=O)O[C@@H]4C)c3nc-2c(C(=O)N[C@@H]2C(=O)N[C@H](C(C)C)C(=O)N3CCC[C@H]3C(=O)N(C)CC(=O)N(C)[C@@H](C(C)C)C(=O)O[C@@H]2C)c(N)c1=O [DACTINOMYCIN] (I: T[dV]P[Sar][NMeV] / II: T[dV]P[Sar][NMeV]; ester I:1-I:C, II:1-II:C; linker I:N-II:N via Actinocin(9to1))
[7]
  IC50: 9000 nM
